Values of other authors, collected in patent US20240082153A1, “IVERMECTIN FORMULATION IN ORAL SOLUTION” (PROCAPS S.A., priority 2020, published 2024).

Columns and labels:
[1] = test system: SARS-CoV-2; settings: in vitro, after 48 hours

Ivermectin
solubility in water: practically insoluble in water | reduction in viral RNA [1]: approximately 5,000 fold
